Experimental data: patent publication US20260102428A1, “COMPOSITIONS AND METHODS FOR THE INHIBITION OF METHICILLIN RESISTANT STAPHYLOCOCCUS AUREUS” (priority 2022, published 2026)
Where “and” joins values, the source holds several entries; their conditions need not be identical. Equal values may be shown once. Where a name gives a salt, the structure may show the parent alone. Bridge positions count the residues as written; N and C are the ends. Square brackets hold non-standard residues; d marks the D form. Peptide text beside a SMILES is read from it. * marks the point of attachment. Ileψ(thiazoline)Cys = CC[C@H](C)[C@H](N)C1=N[C@H](C(=O)*)CS1; dOrn = NCCC[C@@H](N)C(=O)O

Assays:
[1] = test system: MRSA strain USA300-LAC; assay: Zn(II)/Cu-dependent antibiotic screening of the Selleckchem bioactives library (resazurin growth readout); type: cell-based, Staphylococcus aureus; details: compound 10 μM, hit = growth reduced by at least 50%; for Activity class in Zn-dependent screening: with vs without 25 μM ZnSO4, 1×RPMI 1640; for Activity class in Cu-dependent screening: with vs without 25 μM CuSO4, 1×RPMI 1640
[2] = test system: USA300-LAC; assay: Minimal inhibitory concentration by dose-response curves (A600); type: cell-based, Staphylococcus aureus; details: for Antibacterial activity (MIC) without metal: 1×RPMI 1640, no added metal
[3] = test system: clinical multidrug-resistant MRSA isolates; assay: Minimal inhibitory concentration against clinical isolates (dose-response curves)
Experimental: Growth was determined after 20 h of incubation at 37° C. using A600 measurements as a readout. Percentage growth was calculated by normalizing the A600 measurements relative to that of the compound-untreated control of each metal condition. Data represent the mean±SEM (n=3 biological replicates, 3 technical replicates each). […] Data represent the mean±SEM (n=3 biological replicates, 3 technical replicates each).
All S. aureus strains utilized in this study were routinely cultured in Mueller-Hinton medium at 37° C. shaking at 180 rpm prior to transfer into experiment-specific media. […] Lastly, clinical multi-drug resistant MRSA strains were isolated, characterized for clinical drug resistance, de-identified, and obtained from UAB Laboratory Medicine.
The minimal inhibitory concentration (MIC) of the tested compounds was determined using dose-response curves as previously described. Briefly, each strain was cultured to mid-exponential phase in MH medium, as determined by OD600 measurement. S. aureus cultures were then normalized to an OD600 of 0.005 for transfer into the assay plates. Each strain was treated with compounds serially titrated in the assay medium in 96-well flat-bottom plastic plates with or without either CuSO4 or ZnSO4. Compound-untreated samples for each metal condition were used as negative controls. S. aureus were treated for 18-20 hours at 37° C. and 5% CO2. Following the treatment period, bacterial growth was determined by measuring the absorbance of each well at 600 nm using a Biotek Cytation 3 plate reader. Measurements were then background adjusted and normalized to either the untreated control or the metal only control.

[4] = test system: S. aureus JE2; type: cell-based, Staphylococcus aureus; details: 0.25-4× MIC, daily passage 1:100
[5] = Binding constant determination by UV/Vis-absorption titration
Experimental: Binding constants were determined using UV/Vis-absorption spectroscopy by titrating AVB with Cu(I), Cu(II), and Zn(II). Briefly, 1 mM AVB in 100% anhydrous DMSO was titrated in HEPES (4-(2-hydroxyethyl)-1-piperazineethanesulfonic acid) buffer (pH=7.2-7.4) with 800 μM CuBr, CuSO4, or ZnSO4 at the following concentrations: 0 μM, 25 μM, 50 μM, 75 μM, 100 μM, and 150 μM. Once the gradient of solutions was prepared, full spectrum UV/Vis-absorption spectroscopy was performed to detect characteristic spectral changes that occur as a consequence of metal cation binding. Binding constants were calculated by importing the spectra of individual titrations with each metal into the UV 1:1 Bindfit program.

[6] = test system: human cells; assay: Eukaryotic toxicity assays, overall statement; type: cell-based; details: 0.4-30 μM ± 15 μM Zn, 24 hours
[7] = test system: USA300-LAC; details: ZnSO4 titrated against compound, 1×RPMI 1640
[8] = reported values; cited from earlier work
[9] = test system: erythromycin-resistant group A Streptococcus, methicillin-resistant Staphylococcus aureus, and vancomycin-resistant Enterococcus; details: cited from earlier work
[10] = CuBr, HEPES buffer pH 7.2-7.4, UV 1:1 Bindfit
[11] = CuSO4, HEPES buffer pH 7.2-7.4, UV 1:1 Bindfit
[12] = ZnSO4, HEPES buffer pH 7.2-7.4, UV 1:1 Bindfit

c1ccc(-c2ccc(C(c3ccccc3)n3ccnc3)cc2)cc1 (stereo not shown) [bifonazole]
Activity class in Zn-dependent screening [1]: Zn-activated

bacitracin-Zn
MIC of bacitracin-Zn relative to that of AVB-Zn ([2]; with 25 μM ZnSO4): four-fold higher | MIC / resistance ([3]; isolate CI-2, with 25 μM ZnSO4): fully resistant | MIC / resistance ([3]; isolate CI-3, with 25 μM ZnSO4): fully resistant | MIC ([3]; isolate CI-4, with 25 μM ZnSO4): 10 µM | MIC ([3]; isolate CI-5, with 25 μM ZnSO4): 10 µM | MIC ([3]; isolate CI-1320, with Zn): 2 µM | MIC / resistance ([3]; isolate CI-1321, with Zn): partially resistance | MIC / resistance ([3]; isolate CI-1323, with Zn): resistant to bacitracin-Zn at all concentrations tested | MIC / resistance ([3]; isolate CI-1324, with Zn): resistant to bacitracin-Zn at all concentrations tested | MIC ([3]; isolate CI-1328, with Zn): 2 µM

CO[C@H]1/C=C/O[C@@]2(C)Oc3c(C)c(O)c4c(O)c(c(/C=N/N5CCN(C)CC5)c(O)c4c3C2=O)NC(=O)/C(C)=C\C=C\[C@H](C)[C@H](O)[C@@H](C)[C@@H](O)[C@@H](C)[C@H](OC(C)=O)[C@@H]1C [Rifampicin]
Day from which resistant clones could be isolated [4]: 5 days

COc1ccc(C(=O)CC(=O)c2ccc(C(C)(C)C)cc2)cc1 [Avobenzone, 1-(4-tert-butylphenyl)-3-(4-methoxyphenyl)propane-1,3-dione]
Activity class in Cu-dependent screening [1]: activated by both Zn and Cu | Activity class in Zn-dependent screening [1]: activated by both Zn and Cu | KA [5, 10]: 6900 M⁻¹ | Kd [5, 10]: 115 µM | KA [5, 11]: 225,279 M^−1 | Kd [5, 11]: 4.43 µM | Kd ([5]; CuSO4, HEPES buffer pH 7.2-7.4, UV 1:1 Bindfit, listed as AVB): 4.4 µM | KA [5, 12]: 168,982 M^−1 | Kd [5, 12]: 5.92 µM | Kd ([5]; ZnSO4, HEPES buffer pH 7.2-7.4, UV 1:1 Bindfit, listed as AVB): 5.9 µM | Antibacterial activity (MIC) without metal [2]: no antibacterial activity | Cytotoxicity [6]: no relevant cytotoxicity | Zn concentration required for full activity / MIC [7]: 1.25 to 10 µM

Clc1ccc(C(Cn2ccnc2)OCc2ccsc2Cl)c(Cl)c1 (stereo not shown) [tioconazole]
Activity class in Zn-dependent screening [1]: Zn-activated

Clc1ccccc1C(c1ccccc1)(c1ccccc1)n1ccnc1 [clotrimazole]
Activity class in Zn-dependent screening [1]: Zn-activated

CC[C@H](C)[C@H](N)C1=N[C@H](C(=O)N[C@@H](CC(C)C)C(=O)N[C@H](CCC(=O)O)C(=O)N[C@H](C(=O)N[C@H]2CCCCNC(=O)[C@H](CC(N)=O)NC(=O)[C@@H](CC(=O)O)NC(=O)[C@H](Cc3cnc[nH]3)NC(=O)[C@@H](Cc3ccccc3)NC(=O)[C@H]([C@@H](C)CC)NC(=O)[C@@H](CCCN)NC2=O)[C@@H](C)CC)CS1 [Bacitracin] ({Ileψ(thiazoline)Cys}-L[dE]IK[dOrn]I[dF]H[dD]N; lactam 4-C)
Activity class in Cu-dependent screening [1]: not independent or Cu-dependent action | Activity class in Zn-dependent screening [1]: Zn-dependent | KA [5, 10]: 9299 M⁻¹ | Kd [5, 10]: 108 µM | KA [5, 11]: 738,233 M^−1 | Kd [5, 11]: 1.4 µM and 1.35 µM | KA [5, 12]: 172,757 M^−1 | Kd [5, 12]: 5.7 µM and 5.79 µM | Antibacterial activity (MIC) without metal [2]: completely inactive | MIC ([2]; with 25 μM CuSO4, 1×RPMI 1640, 20 h 37° C.): could not be activated by Cu | Zn concentration required for full activity / MIC [7]: 10 µM

CN(C)CCOc1ccc(/C(=C(/CCCl)c2ccccc2)c2ccccc2)cc1 [toremifene citrate]
Activity class in Zn-dependent screening [1]: Zn-activated

CC/C(=C(\c1ccccc1)c1ccc(OCCN(C)C)cc1)c1ccccc1 [tamoxifen]
Activity class in Zn-dependent screening [1]: Zn-activated

c1ccc(CN(CCN(Cc2ccccn2)Cc2ccccn2)Cc2ccccn2)nc1 [TPEN, N,N,N′,N′-tetrakis(2-pyridinylmethyl)-1,2-ethanediamine]
KD of high-affinity metal chelators [8]: picomolar to femtomolar range

O=C(O)CN(CCN(CC(=O)O)CC(=O)O)CC(=O)O [EDTA, 2,2′,2″,2′″-(Ethane-1,2-diyldinitrilo)tetraacetic acid]
KD of high-affinity metal chelators [8]: picomolar to femtomolar range

CN(C)Cc1ccc2c(Cl)cc(Cl)c(O)c2n1 [PTB2]
Zinc concentrations required for antibacterial activity [9]: 400 to 600 µM
